No end group written: not given here.
How the values were obtained:
[1] = system: neoantigen-specific T cells; test: cytokine production by neoantigen-specific T cells (MILLIPLEX / IFN-γ ELISA); assay type: cell-based, human; conditions: upon antigen stimulation, supernatants at 24 h
Description: For analysis of cytokines secreted by T cells upon SCT activation, cultures were activated 14 d after SCT or AT-SCT stimulation, T cells were restimulated with SCT at 1:1 ratio in RPMI 1640 supplemented with 5% pooled human sera (RPMI-5), supernatants were collected 24 h after activation and characterized using a MILLIPLEX® cytokine kit (Millipore, Billerica, Mass.), per the manufacturer's instructions.
(§1) For functional characterization, neoantigen-specific T cell lines were generated using autologous mDC and antigen loaded artificial antigen presenting cells at a ratio of 1:1 as previously described (Carreno, B. M., et al., J. Immunol., 188, 5839-5849, 2012). […] For production of cytokines, neoantigen-specific T cells were restimulated using artificial antigen presenting cells in the presence or absence of peptide, supernatants collected at 24 h and cytokine produced determined using MILLIPLEX® MAP Human Cytokine Panel I (EMD Millipore).
Substantial evidence supports the hypothesis that Th2/Tc2 immune polarization correlates with worse disease outcome in patients with cancer (Fridman, W. H., et al., Nat. Rev. Cancer, 12, 298-306, 2012). […] Thus, we determined production of cytokines upon antigen stimulation as described above. […] Cytokine production was determined using a multi-plex bead assay. […]

[2] = system: peptide-pulsed T2 (HLA-A*02:01) cells; test: 4 h 51Cr-release assay with peptide titrations on T2 cells (peptide avidity, AAS vs WT recognition); assay type: cell-based, human; conditions: peptide presented on T2 cells
Description: ^51Cr release assays to measure specific lysis have been described previously (Carreno, B. M., et al., Immunol. Cell Biol., 87: 167-177, 2009; Linette, G. P. et al., Clin. Cancer Res. 11, 7692-7699, 2005). Melanoma cell lines DM6 (HLAA2+ gp100+) and A375 (HLA-A2+gp100−) were labeled with 25 μCi ^51Cr for 1 hour, washed, and tested as targets in a standard 4-hour assay. Effectors were generated using PBMCs collected after D3 and cultured for 12 days in the presence of peptide (40 μg/ml) and IL2 (50 U/ml every other day). Vaccine-induced antigen-specific T cells were characterized using HLAA*0201/peptide dextramers (Immudex). To determine the avidity (effective concentration at 50% maximal lysis) of vaccine-induced T cells for antigen, T2 cells were pulsed with titrated G209-2M or G280-9V peptide concentrations for 1 hour in serum-free media followed by 51Cr (25 μCi) labeling for 1 hour, washed twice, and tested using vaccine-induced gp100-specific T cells in a standard 4-hour assay.
as §1
To examine cross-reactivity, T2 cells were pulsed with MUT or WT peptide at the indicated concentrations, labeled with ^51CR-chromium and used as target in a cytotoxic assay. Vaccine-induced T cells were incubated with peptide-pulsed T2 cells and ^51Cr-Chromium release measured at 4 h. […]
FIG. 34 illustrates that neoantigen-specific T cells recognition of AAS (closed circles) and WT (open circles) peptides was determined in a standard 4 h ^51Cr-release assay using peptide titrations on T2 (HLAA*02:01) cells. […]

With CLNEYHLFL the “cytokine phenotype of neoantigen-specific T cells (IFN-γ relative to IL-4, IL-5, IL-13)” value [1] was “mixed phenotype”.
With KLMNIQQKL the “cytokine phenotype of neoantigen-specific T cells (IFN-γ relative to IL-4, IL-5, IL-13)” value [1] was “Tc1 phenotype” and the “T cell discrimination between mutated (AAS) and wild-type peptide” value (shortened to “T cell discrimination between mutated”) [2] was “can discriminate between peptide sequence containing single an changes”.
QLSCISTYV was tested, and the “T cell discrimination between mutated” value ([2]; listed as OR8B3) was “cannot discriminate between MUT and WT sequences” and the “T cell discrimination between mutated” value ([2]; listed as OR8B3 T190I) was “could not discriminate between AAS and wild-type (WT) peptide”.
